Laboratory results as given in patent publication US10238670B2, “9-aminomethyl minocycline compounds and methods of use thereof in urinary tract infection (UTI) treatment” (Paratek Pharmaceuticals, Inc., priority 2016, dated 2019).
≈ marks a conversion by molar mass, not a printed value.

Legend:
E. faecium VS = test: In vitro MIC, 2010 surveillance isolates; type: cell-based; settings: for % R (resistance): CLSI breakpoints
E. coli ESBL+ = test: In vitro MIC, 2010 surveillance isolates; type: cell-based, Escherichia coli; settings: for % R (resistance): CLSI breakpoints
E. coli ESBL− = test: In vitro MIC, 2010 surveillance isolates; type: cell-based, Escherichia coli; settings: for % R (resistance): CLSI breakpoints
MS CoNS = test: In vitro MIC, 2010 surveillance isolates; type: cell-based, Coagulase-Negative Staphylococcus
E. faecalis VNS = test: In vitro MIC, 2010 surveillance isolates; type: cell-based; settings: for % R (resistance): CLSI breakpoints
human plasma protein = settings: literature; cited from earlier work
MR CoNS = test: In vitro MIC, 2010 surveillance isolates; type: cell-based, Coagulase-Negative Staphylococcus
E. faecium VNS = test: In vitro MIC, 2010 surveillance isolates; type: cell-based; settings: for % R (resistance): CLSI breakpoints
K. oxytoca = test: In vitro MIC, 2010 surveillance isolates; type: cell-based; settings: for % R (resistance): CLSI breakpoints
K. pneumoniae ESBL+ = test: In vitro MIC, 2010 surveillance isolates; type: cell-based, Klebsiella pneumoniae; settings: for % R (resistance): CLSI breakpoints
E. faecalis VS = test: In vitro MIC, 2010 surveillance isolates; type: cell-based; settings: for % R (resistance): CLSI breakpoints
K. pneumoniae ESBL− = test: In vitro MIC, 2010 surveillance isolates; type: cell-based, Klebsiella pneumoniae; settings: for % R (resistance): CLSI breakpoints
A. baumanii = test: In vitro MIC, 2010 surveillance isolates; type: cell-based
MRSA = test: In vitro MIC, 2010 surveillance isolates; type: cell-based
MSSA = test: In vitro MIC, 2010 surveillance isolates; type: cell-based
E. cloacae CeftazR = test: In vitro MIC, 2010 surveillance isolates; type: cell-based; settings: for % R (resistance): CLSI breakpoints
E. cloacae CeftazS = test: In vitro MIC, 2010 surveillance isolates; type: cell-based; settings: for % R (resistance): CLSI breakpoints
Enterobacter spp = test: In vitro MIC, 2010 surveillance isolates; type: cell-based; settings: for % R (resistance): CLSI breakpoints
Acinetobacter spp = test: In vitro MIC, 2010 surveillance isolates; type: cell-based; settings: for range of MICs (N <10, shown instead of MIC90): N=9; for % R (resistance): CLSI breakpoints

- MIC90 (E. faecium VS; Asia/Pac, N=106): > 8 µg/mL
- MIC90 (E. faecium VS; Europe, N=303): > 8 µg/mL
- MIC90 (E. faecium VS; L. Amer, N=51): > 8 µg/mL
- MIC90 (E. faecium VS; N America, N=115): > 8 µg/mL
- MIC90 (E. coli ESBL+; Asia/Pac, N=219): > 8 µg/mL
- MIC90 (E. coli ESBL+; Europe, N=274): > 8 µg/mL
- MIC90 (E. coli ESBL+; L. Amer, N=168): > 8 µg/mL
- MIC90 (E. coli ESBL+; N America, N=134): > 8 µg/mL
- MIC90 (E. coli ESBL−; Asia/Pac, N=282): > 8 µg/mL
- MIC90 (E. coli ESBL−; Europe, N=1533): > 8 µg/mL
- MIC90 (E. coli ESBL−; L. Amer, N=389): > 8 µg/mL
- MIC90 (E. coli ESBL−; N America, N=1172): > 8 µg/mL
- MIC90 (MS CoNS; Asia/Pac, N=18): 2 µg/mL (≈ 4.5 µM)
- MIC90 (MS CoNS; Europe, N=185): 1 µg/mL (≈ 2.25 µM)
- MIC90 (MS CoNS; L. Amer, N=67): 2 µg/mL (≈ 4.5 µM)
- MIC90 (MS CoNS; N America, N=191): 1 µg/mL (≈ 2.25 µM)
- range of MICs (N <10, shown instead of MIC90) (E. faecalis VNS; Asia/Pac, N=1): 8
- range of MICs (N <10, shown instead of MIC90) (E. faecalis VNS; Europe, N=8): 0.5-8
- range of MICs (N <10, shown instead of MIC90) (E. faecalis VNS; L. Amer, N=7): ≤0.06-4
- MIC90 (E. faecalis VNS; N America, N=38): 8 µg/mL (≈ 18 µM)
- MIC90 (MR CoNS; Asia/Pac, N=77): 8 µg/mL (≈ 18 µM)
- MIC90 (MR CoNS; Europe, N=510): 2 µg/mL (≈ 4.5 µM)
- MIC90 (MR CoNS; L. Amer, N=301): 1 µg/mL (≈ 2.25 µM)
- MIC90 (MR CoNS; N America, N=461): 2 µg/mL (≈ 4.5 µM)
- MIC90 (E. faecium VNS; Asia/Pac, N=24): > 8 µg/mL
- MIC90 (E. faecium VNS; Europe, N=71): 8 µg/mL (≈ 18 µM)
- MIC90 (E. faecium VNS; L. Amer, N=41): 8 µg/mL (≈ 18 µM)
- MIC90 (E. faecium VNS; N America, N=478): > 8 µg/mL
- MIC90 (K. oxytoca; Asia/Pac, N=17): 2 µg/mL (≈ 4.5 µM)
- MIC90 (K. oxytoca; Europe, N=158): 2 µg/mL (≈ 4.5 µM)
- MIC90 (K. oxytoca; L. Amer, N=25): > 8 µg/mL
- MIC90 (K. oxytoca; N America, N=177): 4 µg/mL (≈ 9 µM)
- MIC90 (K. pneumoniae ESBL+; Asia/Pac, N=124): > 8 µg/mL
- MIC90 (K. pneumoniae ESBL+; Europe, N=151): > 8 µg/mL
- MIC90 (K. pneumoniae ESBL+; L. Amer, N=209): > 8 µg/mL
- MIC90 (K. pneumoniae ESBL+; N America, N=108): > 8 µg/mL
- MIC90 (E. faecalis VS; Asia/Pac, N=214): > 8 µg/mL
- MIC90 (E. faecalis VS; Europe, N=669): > 8 µg/mL
- MIC90 (E. faecalis VS; L. Amer, N=290): 8 µg/mL (≈ 18 µM)
- MIC90 (E. faecalis VS; N America, N=863): 8 µg/mL (≈ 18 µM)
- MIC90 (K. pneumoniae ESBL−; Asia/Pac, N=189): > 8 µg/mL
- MIC90 (K. pneumoniae ESBL−; Europe, N=361): > 8 µg/mL
- MIC90 (K. pneumoniae ESBL−; L. Amer, N=160): > 8 µg/mL
- MIC90 (K. pneumoniae ESBL−; N America, N=671): > 8 µg/mL
- MIC90 (A. baumanii; Asia/Pac, N=275): > 8 µg/mL
- MIC90 (A. baumanii; Europe, N=145): > 8 µg/mL
- MIC90 (A. baumanii; L. Amer, N=275): > 8 µg/mL
- MIC90 (A. baumanii; N America, N=154): > 8 µg/mL
- MIC90 (MRSA; Asia/Pac, N=428): 8 µg/mL (≈ 18 µM)
- MIC90 (MRSA; Europe, N=750): 4 µg/mL (≈ 9 µM)
- MIC90 (MRSA; L. Amer, N=506): 0.25 µg/mL (≈ 0.563 µM)
- MIC90 (MRSA; N America, N=2508): 0.5 µg/mL (≈ 1.13 µM)
- MIC90 (MSSA; Asia/Pac, N=641): 1 µg/mL (≈ 2.25 µM)
- MIC90 (MSSA; Europe, N=2109): 0.12 µg/mL (≈ 0.27 µM)
- MIC90 (MSSA; L. Amer, N=590): 0.5 µg/mL (≈ 1.13 µM)
- MIC90 (MSSA; N America, N=2373): 0.12 µg/mL (≈ 0.27 µM)
- MIC90 (E. cloacae CeftazR; Asia/Pac, N=63): 8 µg/mL (≈ 18 µM)
- MIC90 (E. cloacae CeftazR; Europe, N=72): > 8 µg/mL
- MIC90 (E. cloacae CeftazR; L. Amer, N=42): > 8 µg/mL
- MIC90 (E. cloacae CeftazR; N America, N=77): > 8 µg/mL
- MIC90 (E. cloacae CeftazS; Asia/Pac, N=100): > 8 µg/mL
- MIC90 (E. cloacae CeftazS; Europe, N=183): 4 µg/mL (≈ 9 µM)
- MIC90 (E. cloacae CeftazS; L. Amer, N=57): > 8 µg/mL
- MIC90 (E. cloacae CeftazS; N America, N=210): 4 µg/mL (≈ 9 µM)
- MIC90 (Enterobacter spp; Asia/Pac, N=52): > 8 µg/mL
- MIC90 (Enterobacter spp; Europe, N=82): 8 µg/mL (≈ 18 µM)
- MIC90 (Enterobacter spp; L. Amer, N=42): 4 µg/mL (≈ 9 µM)
- MIC90 (Enterobacter spp; N America, N=101): 4 µg/mL (≈ 9 µM)
- range of MICs (N <10, shown instead of MIC90) (Acinetobacter spp; Asia/Pac): ≤0.06-2
- MIC90 (Acinetobacter spp; Europe, N=43): > 8 µg/mL
- range of MICs (N <10, shown instead of MIC90) (Acinetobacter spp; L. Amer): ≤0.06-2
- MIC90 (Acinetobacter spp; N America, N=42): > 8 µg/mL
Compound: C[C@H]1c2cccc(O)c2C(=O)C2=C(O)[C@]3(O)C(=O)C(C(N)=O)=C(O)[C@@H](N(C)C)[C@@H]3[C@@H](O)[C@@H]21 [Doxycycline]
- % R (resistance) (E. faecium VS; L. Amer): 21.6%
- % R (resistance) (E. faecium VS; N America): 31.3%
- resistance rates for ESBL-producing clinical isolates (E. coli ESBL+; E. coli): 46%
- % R (resistance) (E. coli ESBL+; L. Amer): 53%
- % R (resistance) (E. coli ESBL+; N America): 42.5%
- % R (resistance) (E. coli ESBL−; L. Amer): 31.4%
- % R (resistance) (E. coli ESBL−; N America): 16%
- % R (resistance) (MS CoNS; Asia/Pac, Eucast breakpoints): 5.6%
- % R (resistance) (MS CoNS; Europe, Eucast breakpoints): 3.2%
- % R (resistance) (MS CoNS; L. Amer, CLSI breakpoints): 0%
- % R (resistance) (MS CoNS; N America, CLSI breakpoints): 0.5%
- % R (resistance) (E. faecalis VNS; L. Amer): 0%
- % R (resistance) (E. faecalis VNS; N America): 5.3%
- human plasma protein binding, Mean (human plasma protein): 82-93%
- % R (resistance) (MR CoNS; Asia/Pac, Eucast breakpoints): 20.8%
- % R (resistance) (MR CoNS; Europe, Eucast breakpoints): 8.8%
- % R (resistance) (MR CoNS; L. Amer, CLSI breakpoints): 0.3%
- % R (resistance) (MR CoNS; N America, CLSI breakpoints): 1.3%
- % R (resistance) (E. faecium VNS; L. Amer): 7.3%
- % R (resistance) (E. faecium VNS; N America): 33.1%
- % R (resistance) (K. oxytoca; L. Amer): 12%
- % R (resistance) (K. oxytoca; N America): 2.3%
- % R (resistance) (K. pneumoniae ESBL+; L. Amer): 44%
- % R (resistance) (K. pneumoniae ESBL+; N America): 43.5%
- % R (resistance) (E. faecalis VS; L. Amer): 7.6%
- % R (resistance) (E. faecalis VS; N America): 7.1%
- % R (resistance) (K. pneumoniae ESBL−; L. Amer): 17.5%
- % R (resistance) (K. pneumoniae ESBL−; N America): 13.7%
- % R (resistance) (A. baumanii; L. Amer, CLSI breakpoints): 15.3%
- % R (resistance) (MRSA; Asia/Pac, Eucast breakpoints): 48.6%
- % R (resistance) (MRSA; Europe, Eucast breakpoints): 10.8%
- % R (resistance) (MRSA; L. Amer, CLSI breakpoints): 0%
- % R (resistance) (MRSA; N America, CLSI breakpoints): 0.1%
- % R (resistance) (MSSA; Asia/Pac, Eucast breakpoints): 1.7%
- % R (resistance) (MSSA; Europe, Eucast breakpoints): 1.4%
- % R (resistance) (MSSA; L. Amer, CLSI breakpoints): 0%
- % R (resistance) (MSSA; N America, CLSI breakpoints): ≤ 0.1%
- % R (resistance) (E. cloacae CeftazR; L. Amer): 14.3%
- % R (resistance) (E. cloacae CeftazR; N America): 28.6%
- % R (resistance) (E. cloacae CeftazS; L. Amer): 12.3%
- % R (resistance) (E. cloacae CeftazS; N America): 6.2%
- % R (resistance) (Enterobacter spp; L. Amer): 0%
- % R (resistance) (Enterobacter spp; N America): 7.9%
- % R (resistance) (Acinetobacter spp; L. Amer): 0%
- % R (resistance) (Acinetobacter spp; N America): 11.9%
